Assay results: ChEMBL document CHEMBL1201862, “PubChem BioAssay data set” (2004)
Blank lines part the entries; values can stand above or below the compound they belong to. Active and inactive are the calls of the source.

Key:
[1] = target: T1, Mannose-6-phosphate isomerase (Homo sapiens, UniProt P34949); test: human PMI inhibitors, high substrate, primary screen, biochemical, fluorescence intensity, high mannose 6-phosphate (AID 1220)
T1 sequence (P34949 whole entry): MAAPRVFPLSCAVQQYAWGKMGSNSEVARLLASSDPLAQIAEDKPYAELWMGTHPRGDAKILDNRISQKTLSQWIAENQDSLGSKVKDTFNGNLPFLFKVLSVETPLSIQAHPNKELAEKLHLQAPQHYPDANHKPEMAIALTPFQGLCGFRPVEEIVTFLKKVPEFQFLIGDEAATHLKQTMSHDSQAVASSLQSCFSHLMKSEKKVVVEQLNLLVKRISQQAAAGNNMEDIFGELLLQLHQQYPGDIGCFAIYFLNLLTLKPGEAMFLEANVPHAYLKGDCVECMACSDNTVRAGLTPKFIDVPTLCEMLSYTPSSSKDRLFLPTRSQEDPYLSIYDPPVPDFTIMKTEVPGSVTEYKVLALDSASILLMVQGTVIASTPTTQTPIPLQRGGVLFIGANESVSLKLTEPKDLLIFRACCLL

[2] = target: T2, Sentrin-specific protease 6 (Homo sapiens, UniProt Q9GZR1); format: functional;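 also: Luminescence-based dose-response confirmatory assay of SENP6 inhibition, following up an ultra-high-throughput screen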
T2 sequence (Q9GZR1 whole entry): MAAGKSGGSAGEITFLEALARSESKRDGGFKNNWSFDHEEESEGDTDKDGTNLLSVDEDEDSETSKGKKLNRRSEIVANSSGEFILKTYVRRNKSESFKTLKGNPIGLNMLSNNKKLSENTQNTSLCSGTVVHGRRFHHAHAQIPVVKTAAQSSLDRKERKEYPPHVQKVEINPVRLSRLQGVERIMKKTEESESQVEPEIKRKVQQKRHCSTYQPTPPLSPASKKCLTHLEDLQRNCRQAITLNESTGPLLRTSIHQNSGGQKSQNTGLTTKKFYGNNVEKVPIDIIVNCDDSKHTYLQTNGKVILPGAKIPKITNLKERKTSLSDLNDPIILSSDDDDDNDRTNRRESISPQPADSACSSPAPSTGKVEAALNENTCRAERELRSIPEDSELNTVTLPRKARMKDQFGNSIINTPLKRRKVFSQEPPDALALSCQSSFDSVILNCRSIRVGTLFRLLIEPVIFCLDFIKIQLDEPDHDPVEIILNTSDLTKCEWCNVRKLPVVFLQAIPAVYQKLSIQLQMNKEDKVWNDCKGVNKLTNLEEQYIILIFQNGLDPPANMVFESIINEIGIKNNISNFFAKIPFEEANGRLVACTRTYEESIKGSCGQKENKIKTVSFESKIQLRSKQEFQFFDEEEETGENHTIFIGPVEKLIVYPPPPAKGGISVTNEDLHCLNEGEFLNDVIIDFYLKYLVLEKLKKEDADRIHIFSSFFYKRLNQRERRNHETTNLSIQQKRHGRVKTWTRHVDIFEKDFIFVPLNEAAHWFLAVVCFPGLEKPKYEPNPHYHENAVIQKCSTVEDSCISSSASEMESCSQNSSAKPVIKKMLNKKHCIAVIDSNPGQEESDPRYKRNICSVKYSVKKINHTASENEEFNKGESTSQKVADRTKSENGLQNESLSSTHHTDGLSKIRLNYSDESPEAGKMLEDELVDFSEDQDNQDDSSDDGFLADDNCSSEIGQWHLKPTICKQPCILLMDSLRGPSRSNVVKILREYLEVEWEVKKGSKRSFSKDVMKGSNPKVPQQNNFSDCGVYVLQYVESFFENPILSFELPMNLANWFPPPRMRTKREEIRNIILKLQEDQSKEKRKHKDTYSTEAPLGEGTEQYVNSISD

[3] = target: Dual specificity protein kinase CLK2 (Homo sapiens, UniProt P49760); format: functional
Dual specificity protein kinase CLK2, sequence (P49760 whole entry): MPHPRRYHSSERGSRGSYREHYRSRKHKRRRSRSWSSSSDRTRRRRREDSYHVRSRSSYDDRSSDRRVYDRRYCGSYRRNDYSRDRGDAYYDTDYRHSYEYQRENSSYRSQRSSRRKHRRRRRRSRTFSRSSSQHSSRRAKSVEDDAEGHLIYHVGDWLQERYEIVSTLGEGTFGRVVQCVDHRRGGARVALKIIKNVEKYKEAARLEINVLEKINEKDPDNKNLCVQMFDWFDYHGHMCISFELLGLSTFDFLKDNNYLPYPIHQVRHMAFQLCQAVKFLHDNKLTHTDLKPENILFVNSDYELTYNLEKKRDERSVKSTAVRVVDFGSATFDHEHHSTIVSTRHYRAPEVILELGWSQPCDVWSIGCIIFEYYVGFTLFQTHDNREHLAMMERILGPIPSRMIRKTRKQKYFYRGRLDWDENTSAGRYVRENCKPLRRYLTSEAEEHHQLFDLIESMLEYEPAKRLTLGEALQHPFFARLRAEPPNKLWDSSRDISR

[4] = target: Protein kinase C theta type (Homo sapiens, UniProt Q04759); test: Navigating the Kinome. Panel member name: PRKCQ; format: functional
[5] = target: Platelet-derived growth factor receptor alpha (Homo sapiens, UniProt P16234); test: Navigating the Kinome. Panel member name: PDGFRA; format: functional
Platelet-derived growth factor receptor alpha, sequence (P16234 whole entry): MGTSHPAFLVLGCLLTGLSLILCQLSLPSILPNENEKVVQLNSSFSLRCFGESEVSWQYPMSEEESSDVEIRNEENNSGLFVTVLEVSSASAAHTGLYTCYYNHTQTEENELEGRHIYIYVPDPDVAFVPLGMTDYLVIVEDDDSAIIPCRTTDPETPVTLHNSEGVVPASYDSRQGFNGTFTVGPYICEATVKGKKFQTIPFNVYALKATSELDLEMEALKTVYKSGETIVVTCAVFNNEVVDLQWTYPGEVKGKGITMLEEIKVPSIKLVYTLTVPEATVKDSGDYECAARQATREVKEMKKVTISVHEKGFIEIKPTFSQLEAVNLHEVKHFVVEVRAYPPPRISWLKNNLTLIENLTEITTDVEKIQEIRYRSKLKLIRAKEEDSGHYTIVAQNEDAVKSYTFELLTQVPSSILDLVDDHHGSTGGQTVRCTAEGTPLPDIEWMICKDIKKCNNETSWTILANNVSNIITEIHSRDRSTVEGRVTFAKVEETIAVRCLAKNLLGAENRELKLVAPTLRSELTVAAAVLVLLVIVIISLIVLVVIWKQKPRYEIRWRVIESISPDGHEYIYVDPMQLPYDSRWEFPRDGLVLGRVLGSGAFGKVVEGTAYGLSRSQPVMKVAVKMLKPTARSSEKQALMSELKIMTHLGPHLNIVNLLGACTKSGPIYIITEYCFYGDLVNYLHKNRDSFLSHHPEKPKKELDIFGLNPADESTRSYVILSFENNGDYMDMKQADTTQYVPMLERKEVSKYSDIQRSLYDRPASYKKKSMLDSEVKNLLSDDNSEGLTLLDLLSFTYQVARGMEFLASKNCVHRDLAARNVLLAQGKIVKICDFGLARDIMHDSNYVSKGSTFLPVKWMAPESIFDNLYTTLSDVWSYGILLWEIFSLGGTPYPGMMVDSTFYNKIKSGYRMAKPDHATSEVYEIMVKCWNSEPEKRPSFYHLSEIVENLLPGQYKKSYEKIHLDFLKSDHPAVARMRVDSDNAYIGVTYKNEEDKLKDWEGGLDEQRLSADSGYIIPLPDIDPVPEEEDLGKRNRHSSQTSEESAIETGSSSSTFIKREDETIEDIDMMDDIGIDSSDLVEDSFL

[6] = target: Inhibitor of nuclear factor kappa-B kinase subunit epsilon (Homo sapiens, UniProt Q14164); test: Navigating the Kinome. Panel member name: IKBKE; format: functional
SRSF protein kinase 1 = SRSF protein kinase 1 (Homo sapiens, UniProt Q96SB4); format: functional;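 also: measured as one member of a kinome-wide kinase profiling panel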
SRSF protein kinase 1, sequence (Q96SB4 whole entry): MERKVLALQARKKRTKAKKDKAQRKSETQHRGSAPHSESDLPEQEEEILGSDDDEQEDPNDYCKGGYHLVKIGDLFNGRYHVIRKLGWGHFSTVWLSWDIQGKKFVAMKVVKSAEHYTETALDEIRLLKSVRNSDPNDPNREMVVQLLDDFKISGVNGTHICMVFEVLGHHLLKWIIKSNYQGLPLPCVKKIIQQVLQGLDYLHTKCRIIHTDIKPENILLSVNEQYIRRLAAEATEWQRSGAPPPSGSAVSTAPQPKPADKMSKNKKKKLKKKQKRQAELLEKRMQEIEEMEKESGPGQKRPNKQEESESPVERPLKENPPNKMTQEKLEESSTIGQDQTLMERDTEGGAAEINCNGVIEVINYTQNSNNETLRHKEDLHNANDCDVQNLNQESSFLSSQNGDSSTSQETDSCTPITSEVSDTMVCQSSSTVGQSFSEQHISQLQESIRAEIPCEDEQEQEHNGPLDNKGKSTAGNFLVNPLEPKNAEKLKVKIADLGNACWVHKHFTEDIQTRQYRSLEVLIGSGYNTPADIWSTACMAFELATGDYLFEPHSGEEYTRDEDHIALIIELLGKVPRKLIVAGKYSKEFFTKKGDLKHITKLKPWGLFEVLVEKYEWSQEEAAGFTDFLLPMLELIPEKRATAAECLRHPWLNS

[7] = target: Serine/threonine-protein kinase D2 (Homo sapiens, UniProt Q9BZL6); format: functional;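 also: measured against PRKD2 as one member of a kinome-wide kinase profiling panel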
Serine/threonine-protein kinase D2, sequence (Q9BZL6 whole entry): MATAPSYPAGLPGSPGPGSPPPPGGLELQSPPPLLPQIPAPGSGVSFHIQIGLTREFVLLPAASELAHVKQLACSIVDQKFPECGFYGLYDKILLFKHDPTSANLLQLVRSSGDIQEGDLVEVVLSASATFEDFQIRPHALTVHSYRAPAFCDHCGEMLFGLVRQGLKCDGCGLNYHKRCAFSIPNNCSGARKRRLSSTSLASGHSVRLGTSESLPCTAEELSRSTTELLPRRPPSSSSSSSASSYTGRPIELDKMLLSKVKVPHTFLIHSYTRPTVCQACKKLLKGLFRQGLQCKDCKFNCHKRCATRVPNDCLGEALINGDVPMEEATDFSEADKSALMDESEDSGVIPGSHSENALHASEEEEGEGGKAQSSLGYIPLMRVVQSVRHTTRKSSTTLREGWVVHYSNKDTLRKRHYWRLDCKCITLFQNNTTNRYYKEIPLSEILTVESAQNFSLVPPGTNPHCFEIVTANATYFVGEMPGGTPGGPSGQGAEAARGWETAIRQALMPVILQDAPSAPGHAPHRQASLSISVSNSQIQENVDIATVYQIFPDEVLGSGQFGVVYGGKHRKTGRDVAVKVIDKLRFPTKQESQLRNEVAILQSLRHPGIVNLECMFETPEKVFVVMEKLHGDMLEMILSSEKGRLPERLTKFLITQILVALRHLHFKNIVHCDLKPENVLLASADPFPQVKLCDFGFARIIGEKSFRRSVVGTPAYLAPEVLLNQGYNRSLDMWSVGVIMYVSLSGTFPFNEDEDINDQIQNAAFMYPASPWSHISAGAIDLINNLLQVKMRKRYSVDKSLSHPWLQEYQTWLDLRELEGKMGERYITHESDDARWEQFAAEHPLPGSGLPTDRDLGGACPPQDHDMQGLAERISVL

[8] = target: Mast/stem cell growth factor receptor Kit (Homo sapiens, UniProt P10721); format: functional;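 also: KIT entry within a kinase panel assay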
[9] = target: Fibroblast growth factor receptor 3 (Homo sapiens, UniProt P22607); format: functional
[10] = target: Tyrosine-protein kinase FRK (Homo sapiens, UniProt P42685); format: functional;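 also: FRK tested as one member of a kinome panel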
[11] = target: Calcium/calmodulin-dependent protein kinase type II subunit gamma (Homo sapiens, UniProt Q13555); format: functional
Calcium/calmodulin-dependent protein kinase type II subunit gamma, sequence (Q13555 whole entry): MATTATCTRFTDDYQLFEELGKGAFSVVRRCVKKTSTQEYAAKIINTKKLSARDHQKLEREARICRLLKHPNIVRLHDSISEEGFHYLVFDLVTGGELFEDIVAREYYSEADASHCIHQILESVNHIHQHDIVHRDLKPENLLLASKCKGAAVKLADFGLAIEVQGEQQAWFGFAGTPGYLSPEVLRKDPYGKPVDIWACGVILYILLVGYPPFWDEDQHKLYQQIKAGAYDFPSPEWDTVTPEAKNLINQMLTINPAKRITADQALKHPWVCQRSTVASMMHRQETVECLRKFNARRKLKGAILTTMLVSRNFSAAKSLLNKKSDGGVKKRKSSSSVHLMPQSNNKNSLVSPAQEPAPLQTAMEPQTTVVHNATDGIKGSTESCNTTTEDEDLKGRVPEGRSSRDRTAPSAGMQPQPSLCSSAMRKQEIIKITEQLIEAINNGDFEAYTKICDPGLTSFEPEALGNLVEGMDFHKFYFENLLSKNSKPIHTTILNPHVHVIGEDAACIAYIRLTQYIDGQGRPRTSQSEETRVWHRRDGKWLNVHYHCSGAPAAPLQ

[12] = target: Interleukin-1 receptor-associated kinase 1 (Homo sapiens, UniProt P51617); format: functional;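 also: IRAK1 tested as one member of a kinome panel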
[13] = target: Serine/threonine-protein kinase PAK 1 (Homo sapiens, UniProt Q13153); format: functional
[14] = target: Testis-specific serine/threonine-protein kinase 2 (Homo sapiens, UniProt Q96PF2); format: functional;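 also: part of the Navigating the Kinome panel, target entry STK22B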
[15] = target: MAP kinase-interacting serine/threonine-protein kinase 2 (Homo sapiens, UniProt Q9HBH9); format: functional
[16] = target: Tyrosine-protein kinase Blk (Homo sapiens, UniProt P51451); format: functional;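 also: obtained as one member of a kinome-wide kinase assay panel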
[17] = target: Serine/threonine-protein kinase PLK4 (Homo sapiens, UniProt O00444); format: functional;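 also: PLK4 measured as one member of a kinome-wide kinase profiling panel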
[18] = target: Eukaryotic elongation factor 2 kinase (Homo sapiens, UniProt O00418); format: functional
Eukaryotic elongation factor 2 kinase, sequence (O00418 whole entry): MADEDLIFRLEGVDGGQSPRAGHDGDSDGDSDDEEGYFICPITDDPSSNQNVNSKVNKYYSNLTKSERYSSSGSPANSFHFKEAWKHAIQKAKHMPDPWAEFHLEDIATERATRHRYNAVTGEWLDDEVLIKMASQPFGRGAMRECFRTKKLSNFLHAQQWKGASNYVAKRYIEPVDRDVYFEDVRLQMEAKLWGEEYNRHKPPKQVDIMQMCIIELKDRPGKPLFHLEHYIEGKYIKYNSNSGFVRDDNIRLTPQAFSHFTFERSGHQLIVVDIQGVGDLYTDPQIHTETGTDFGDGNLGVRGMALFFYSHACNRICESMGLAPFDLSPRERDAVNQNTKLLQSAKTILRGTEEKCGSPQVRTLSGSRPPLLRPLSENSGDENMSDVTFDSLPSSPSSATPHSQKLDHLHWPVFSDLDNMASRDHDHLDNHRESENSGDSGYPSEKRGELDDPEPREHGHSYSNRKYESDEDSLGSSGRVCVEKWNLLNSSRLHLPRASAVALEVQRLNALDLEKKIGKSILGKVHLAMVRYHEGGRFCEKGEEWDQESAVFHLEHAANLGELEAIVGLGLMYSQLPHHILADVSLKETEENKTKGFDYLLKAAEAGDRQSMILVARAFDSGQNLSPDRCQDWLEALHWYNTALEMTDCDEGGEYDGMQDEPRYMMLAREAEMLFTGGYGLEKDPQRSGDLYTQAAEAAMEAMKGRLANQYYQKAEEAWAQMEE

[19] = target: Serine/threonine-protein kinase DCLK1 (Homo sapiens, UniProt O15075); format: functional;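 also: affinity for DCLK1 (listed as DCAMKL1) measured as one member of a kinome-wide kinase profiling panel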
[20] = target: Dual specificity tyrosine-phosphorylation-regulated kinase 4 (Homo sapiens, UniProt Q9NR20); format: functional
[21] = target: Serine/threonine-protein kinase pim-3 (Homo sapiens, UniProt Q86V86); format: functional;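 also: value obtained as one member of a broad kinase panel profiling effort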
[22] = target: Tyrosine-protein kinase Lyn (Homo sapiens, UniProt P07948); format: functional;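 also: lyn as one member of a kinase panel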
Tyrosine-protein kinase Lyn, sequence (P07948 whole entry): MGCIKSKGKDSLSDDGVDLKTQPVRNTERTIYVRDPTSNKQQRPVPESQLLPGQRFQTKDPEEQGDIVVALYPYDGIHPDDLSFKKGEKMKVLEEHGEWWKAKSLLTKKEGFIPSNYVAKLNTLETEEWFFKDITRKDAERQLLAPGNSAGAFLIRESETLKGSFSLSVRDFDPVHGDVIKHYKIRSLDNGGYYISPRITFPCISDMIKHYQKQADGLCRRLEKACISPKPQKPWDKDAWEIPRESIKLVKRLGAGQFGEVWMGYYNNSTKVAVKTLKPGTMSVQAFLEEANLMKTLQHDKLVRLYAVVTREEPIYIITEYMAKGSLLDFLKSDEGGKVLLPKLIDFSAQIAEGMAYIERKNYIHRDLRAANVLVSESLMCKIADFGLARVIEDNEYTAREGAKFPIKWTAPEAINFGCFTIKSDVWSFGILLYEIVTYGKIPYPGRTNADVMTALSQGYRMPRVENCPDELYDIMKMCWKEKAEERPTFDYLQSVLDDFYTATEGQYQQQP

[23] = target: Lymphokine-activated killer T-cell-originated protein kinase (Homo sapiens, UniProt Q96KB5); format: functional;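 also: value comes from a kinase panel screen in which TOPK was one of the panel members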
[24] = target: Mitogen-activated protein kinase 13 (Homo sapiens, UniProt O15264); format: functional

IC50 [1]: > 50 µM (not active)
IC50 [2]: 4.07 µM (active)
SMILES: COc1ccc(-n2c(NC(=O)c3ccco3)c(C#N)c3nc4ccccc4nc32)cc1

Ki [3]: > 3.98 µM (inactive)
Ki [4]: > 2.51 µM (inactive)
Ki [5]: > 2.51 µM (inactive)
Ki [6]: > 3.16 µM (inactive)
SMILES: [2H]C([2H])([2H])Oc1cccc(C(C)NC(=O)c2sc(-c3ccncc3)nc2C)c1 (stereo not given)

Ki (SRSF protein kinase 1): > 5.01 µM (inactive)
Ki [7]: 31.6 nM (active)
Ki [8]: > 1.26 µM (inactive)
Ki [9]: > 2 µM (inactive)
Ki [10]: > 2.51 µM (inactive)
Ki [11]: 15.8 nM (active)
Ki [12]: 501 nM (active)
Ki [13]: 794 nM (active)
Ki [14]: > 1.58 µM (inactive)
Ki [15]: 251 nM (active)
Ki [16]: > 1.58 µM (inactive)
Ki [17]: 1.26 µM (active)
Ki [18]: 3.16 µM (active)
Ki [19]: 2 µM (active)
Ki [20]: 1 µM (active)
Ki [21]: 15.8 nM (active)
Ki [22]: > 1.58 µM (inactive)
Ki [24]: 631 nM (active)
SMILES: Cc1n[nH]c2ccc(-c3cncc(OCC(N)Cc4ccc(Cl)c(Cl)c4)c3)cc12 (stereo not given)
Ki [23]: 3.98 µM (active)
